Measurements: patent US7598417B2, “Substituted fluoroethyl ureas as alpha 2 adrenergic agents” (Allergan, Inc., priority 2007, dated 2009)

Columns and labels:
Type in all cases: cell-based
[1] = molecular target: T1, alpha2A receptor (Homo sapiens, UniProt P08913); assay: Receptor Selection and Amplification Technology (RSAT) assay, alpha2A; details: for EC50: RSAT, NIH-3T3 cells cotransfected with receptor and Gq/i5, not active = not active at concentrations less than 10 micromolar, read-out: Alpha 2A EC50; for Alpha 2A IA (intrinsic activity): ratio of maximal effect of the drug to maximal effect of standard full agonist brimonidine (UK14304)
T1 construct: expressed in transfected cells; host or cells: NIH-3T3
T1 sequence (P08913 1-465): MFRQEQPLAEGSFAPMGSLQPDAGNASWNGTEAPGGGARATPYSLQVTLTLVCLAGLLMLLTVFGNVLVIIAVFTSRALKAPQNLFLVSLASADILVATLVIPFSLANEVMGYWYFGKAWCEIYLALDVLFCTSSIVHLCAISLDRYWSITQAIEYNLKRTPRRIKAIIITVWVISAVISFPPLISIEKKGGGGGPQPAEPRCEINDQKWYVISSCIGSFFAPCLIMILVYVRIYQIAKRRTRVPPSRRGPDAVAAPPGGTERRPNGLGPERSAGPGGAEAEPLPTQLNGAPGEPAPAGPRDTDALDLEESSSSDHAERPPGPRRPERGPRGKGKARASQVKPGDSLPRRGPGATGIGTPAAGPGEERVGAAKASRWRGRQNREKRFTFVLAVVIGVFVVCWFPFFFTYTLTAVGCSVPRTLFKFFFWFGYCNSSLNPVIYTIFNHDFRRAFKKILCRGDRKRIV
Description: (§1) Receptor Selection and Amplification Technology (RSAT) Assay
(§2) The RSAT assay measures a receptor-mediated loss of contact inhibition that results in selective proliferation of receptor-containing cells in a mixed population of confluent cells. The increase in cell number is assessed with an appropriate transfected marker gene such as β-galactosidase, the activity of which can be easily measured in a 96-well format. Receptors that activate the G protein, Gq, elicit this response. Alpha2 receptors, which normally couple to Gi, activate the RSAT response when coexpressed with a hybrid Gq protein that has a Gi receptor recognition domain, called Gq/i5.
(§3) NIH-3T3 cells are plated at a density of 2×10^6 cells in 15 cm dishes and maintained in Dulbecco's modified Eagle's medium supplemented with 10% calf serum. One day later, cells are cotransfected by calcium phosphate precipitation with mammalian expression plasmids encoding p-SV-β-galactosidase (5-10 μg), receptor (1-2 μg) and G protein (1-2 μg). 40 μg salmon sperm DNA may also be included in the transfection mixture. Fresh media is added on the following day and 1-2 days later, cells are harvested and frozen in 50 assay aliquots. Cells are thawed and 100 μl added to 100 μl aliquots of various concentrations of drugs in triplicate in 96-well dishes. Incubations continue 72-96 hr at 37° C. After washing with phosphate-buffered saline, β-galactosidase enzyme activity is determined by adding 200 μl of the chromogenic substrate (consisting of 3.5 mM o-nitrophenyl-β-D-galactopyranoside and 0.5% nonidet P-40 in phosphate buffered saline), incubating overnight at 30° C. and measuring optical density at 420 nm. The absorbance is a measure of enzyme activity, which depends on cell number and reflects a receptor-mediated cell proliferation. The efficacy or intrinsic activity is calculated as a ratio of the maximal effect of the drug to the maximal effect of a standard full agonist for each receptor subtype. Brimonidine, also called UK14304, the chemical structure of which is shown below, is used as the standard agonist for the alpha2A, alpha2B and alpha2C receptors. The EC50 is the concentration at which the drug effect is half of its maximal effect.
(§4) EC50 values are nanomolar. NA stands for “not active” at concentrations less than 10 micromolar. IA stands for “intrinsic activity.”

[2] = molecular target: T2, alpha2C receptor (Homo sapiens, UniProt P18825); assay: Receptor Selection and Amplification Technology (RSAT) assay, alpha2C; details: for EC50: RSAT, NIH-3T3 cells cotransfected with receptor and Gq/i5, not active = not active at concentrations less than 10 micromolar, read-out: Alpha 2C EC50; for Alpha 2C IA (intrinsic activity): ratio of maximal effect of the drug to maximal effect of standard full agonist brimonidine (UK14304)
T2 construct: expressed in transfected cells; host or cells: NIH-3T3
T2 sequence (P18825 1-462): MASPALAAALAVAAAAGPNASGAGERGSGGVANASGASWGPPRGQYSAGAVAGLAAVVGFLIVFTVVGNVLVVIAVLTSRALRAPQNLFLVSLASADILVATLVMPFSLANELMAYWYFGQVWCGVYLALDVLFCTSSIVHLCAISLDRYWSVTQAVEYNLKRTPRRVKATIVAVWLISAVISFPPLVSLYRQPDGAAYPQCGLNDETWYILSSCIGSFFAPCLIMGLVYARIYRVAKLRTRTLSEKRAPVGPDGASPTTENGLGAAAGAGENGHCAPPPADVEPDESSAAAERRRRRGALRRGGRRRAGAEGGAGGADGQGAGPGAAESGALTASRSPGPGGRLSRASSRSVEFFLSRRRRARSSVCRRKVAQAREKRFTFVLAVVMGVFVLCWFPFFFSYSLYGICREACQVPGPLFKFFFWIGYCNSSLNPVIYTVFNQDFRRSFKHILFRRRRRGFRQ
Description: as §1, §2, §3, §4

[3] = molecular target: T3, alpha2B receptor (Homo sapiens, UniProt P18089); assay: Receptor Selection and Amplification Technology (RSAT) assay, alpha2B; details: for EC50: RSAT, NIH-3T3 cells cotransfected with receptor and Gq/i5, not active = not active at concentrations less than 10 micromolar, read-out: Alpha 2B EC50; for Alpha 2B IA (intrinsic activity): ratio of maximal effect of the drug to maximal effect of standard full agonist brimonidine (UK14304)
T3 construct: expressed in transfected cells; host or cells: NIH-3T3
T3 sequence (P18089 1-450): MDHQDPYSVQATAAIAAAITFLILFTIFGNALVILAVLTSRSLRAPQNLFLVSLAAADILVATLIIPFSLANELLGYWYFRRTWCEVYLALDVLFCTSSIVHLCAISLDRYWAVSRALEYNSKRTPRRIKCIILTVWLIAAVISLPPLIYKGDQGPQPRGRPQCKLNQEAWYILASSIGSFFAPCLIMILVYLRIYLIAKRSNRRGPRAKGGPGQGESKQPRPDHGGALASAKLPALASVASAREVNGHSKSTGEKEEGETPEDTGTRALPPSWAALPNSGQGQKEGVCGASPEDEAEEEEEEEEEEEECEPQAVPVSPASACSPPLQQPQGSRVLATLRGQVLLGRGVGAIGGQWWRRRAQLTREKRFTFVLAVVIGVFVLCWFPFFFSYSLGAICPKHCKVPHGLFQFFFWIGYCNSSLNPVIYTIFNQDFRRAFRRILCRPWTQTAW
Description: as §1, §2, §3
The results of the RSAT assay with several exemplary compounds of the invention are disclosed in Table 1 above together with the chemical formulas of these exemplary compounds. EC50 values are nanomolar. NA stands for “not active” at concentrations less than 10 micromolar. IA stands for “intrinsic activity.”

Row | SMILES | EC50 [1] [nM] | Alpha 2A IA (intrinsic activity) [1] | EC50 [2] [nM] | Alpha 2C IA (intrinsic activity) [2] | EC50 [3] [nM] | Alpha 2B IA (intrinsic activity) [3]
1 | O=C(NCCF)NC1CCCCc2ccccc21 (stereo not drawn) | 534 | 0.3 | 967 | 0.5 | 212 | 0.65
2 | COc1cccc2c1CCC2NC(=O)NCCF (stereo not drawn) | 2070 | 0.48 | 1110 | 0.59 | 121 | 0.72
3 | COc1cccc2c1C(NC(=O)NCCF)CC2 (stereo not drawn) | 277 | 0.48 | 972 | 0.54 | 544 | 0.63
4 | Cc1cccc2c1C(NC(=O)NCCF)CC2 (stereo not drawn) | 189 | 0.43 | 197 | 0.62 | 26.8 | 0.6
5 | O=C(NCCF)N[C@@H]1CCc2ccccc21 | 693 | 0.36 | 1820 | 0.61 | 565 | 0.55
6 | CC1=C(C)C(NC(=O)NCCF)CC1 (stereo not drawn) | 586 | 0.36 | 214 | 0.64 | 37 | 1.07
7 | O=C(NCCF)NC1CCc2ccc(Cl)cc21 (stereo not drawn) | 343 | 0.63 | 86 | 0.7 | 12 | 0.99
8 | O=C(NCCF)NC1CCCc2c(Cl)cccc21 (stereo not drawn) | 168 | 0.42 | 310 | 0.72 | 29 | 1.11

Compounds with a lower EC50 [1], results first:

Row | EC50 [1] [nM] | Alpha 2A IA (intrinsic activity) [1] | EC50 [2] [nM] | Alpha 2C IA (intrinsic activity) [2] | EC50 [3] [nM] | Alpha 2B IA (intrinsic activity) [3] | SMILES
9 | 146 | 0.41 | 204 | 0.53 | 20.3 | 0.91 | O=C(NCCF)NC1CCCc2c(Br)cccc21 (stereo not drawn)
10 | 130 | 0.76 | 107 | 0.68 | 1.8 | 1.05 | O=C(NCCF)NC1CCc2c(F)cccc21 (stereo not drawn)
11 | 68.3 | 0.52 | 107 | 0.76 | 8.2 | 1.03 | O=C(NCCF)NC1CCCc2c(F)cccc21 (stereo not drawn)
12 | 64.6 | 0.97 | 103 | 0.7 | 2.7 | 1.06 | O=C(NCCF)NC1CCc2c(Br)cccc21 (stereo not drawn)
13 | 48 | 0.41 | 123 | 1.03 | 5.6 | 1.3 | Cc1cccc2c1CCCC2NC(=O)NCCF (stereo not drawn)
14 | 34.9 | 1.05 | 116 | 1.1 | 2.5 | 1.03 | O=C(NCCF)NC1CCc2c(Cl)cccc21 (stereo not drawn)
